The values below are quoted from earlier work in patent US20090176772A1, “METHOD OF REVERSING LEFT VENTRICULAR REMODELING” (priority 2004, published 2009).

This data set deals with LV reverse remodeling. The following applies: historical data, Sabbah et al. (1994) Circ. 89:2852-2859; cited from earlier work.

With `COCCc1ccc(OCC(O)CNC(C)C)cc1` (stereo not shown) [metoprolol], the “Ability to reduce LV end-diastolic volume (FIG. 1)” value was “neither ranolazine, enalapril, nor metoprolol were independently able to reduce LV end-diastolic volume” and the “Ability to reduce LV end-systolic volume (FIG. 2)” value is “neither ranolazine, enalapril, nor metoprolol appear to independently reduce LV end-systolic volume”.

Regarding `CCOC(=O)[C@H](CCc1ccccc1)N[C@@H](C)C(=O)N1CCC[C@H]1C(=O)O` [enalapril], the “Ability to reduce LV end-diastolic volume (FIG. 1)” value is “neither ranolazine, enalapril, nor metoprolol were independently able to reduce LV end-diastolic volume” and the “Ability to reduce LV end-systolic volume (FIG. 2)” value is “neither ranolazine, enalapril, nor metoprolol appear to independently reduce LV end-systolic volume”.
